From article PMC8151276, “An Integrated Approach toward NanoBRET Tracers for Analysis of GPCR Ligand Engagement” (Molecules, 2021)

Legend:
MTNR1A = target: T1, MTNR1A (Homo sapiens, UniProt P48039); experiment: NanoBRET screen HiBiT-MTNR1A in HEK293; format: binding
T1 construct: purchased Promega (in-house HiBiT-GPCR construct library, NanoBRET)
Experimental: (§1) Each tracer candidate was screened across the entire library of HiBiT-GPCR constructs using NanoBRET as the detection modality. As depicted in Figure 4A, the specificity of interactions was evaluated through decrease in BRET due to competitive displacement of a bound tracer by excess parental compound. Each tracer was analyzed for binding to each HiBiT-GPCR fusion in the absence and in the presence of competing parental compound. Briefly, HEK293 cells were transfected with HiBiT-GPCR constructs diluted into promoterless DNA to reduce expression and maximize translocation to the cell surface. Each tracer candidate was then screened at concentrations of 1 μM and 0.1 μM across cells expressing these fusions. Cells were treated for 1.5 h with tracer either alone or in the presence of 20 μM competing parental compound (i.e., control). BRET was measured upon addition of purified LgBiT and subsequent complementation with HiBiT genetically fused to a GPCR. The specificity of interactions was assessed through a decrease in BRET signal due to competitive displacement of the bound tracer. To further gauge the robustness of these interactions, the fold response over the control (i.e., BRETtracer/BRETcontrol) was calculated. We chose a 1.5-fold response, which translates to ≥7-fold signal over noise as the minimal threshold required to score an interaction as positive.
(§2) HiBiT-GPCR DNA constructs were diluted in 10 mM Tris pH 8 to a final concentration of 0.01 μg/μL, arrayed in 96-well plates and stored at −20 °C. For transfection, HEK293 cells were suspended in Opti-MEM (without phenol red) supplemented with 2% fetal bovine serum (Seradigm) and 100 units/mL penicillin–streptomycin (Gibco) at a final concentration of 220,000 cells/mL and dispensed into white 96-well plates at 90 μL/well. Subsequent transfections and screens were carried using an Agilent Bravo Automated Liquid Handling Platform. First, the 96-well HiBiT DNA arrays were diluted 25-fold in Opti-MEM (without serum or phenol red) to a final concentration of 0.0004 μg/μL and 20 μL of the diluted DNAs were transferred into new 96-well plates. Next, promoterless carrier DNA (1 μg/μL) was diluted 25-fold (0.04 μg/μL) and then dispensed into the diluted arrays at 20 μL/well. Following brief mixing, Viafect transfection reagent (Promega) diluted 16-fold into Opti-MEM was dispensed into the plates at 40 μL/well. After mixing by pipetting, plates were incubated for 10 min on the pipetting station deck. The DNA-transfection reagent complexes were then added to plates containing cells. To facilitate the screen, 10 μL of DNA-transfection reagent complexes were added in duplicates to the top 4 and bottom 4 rows, resulting in two identical 48-well arrays per plate. Plates with transfected cells were incubated for 18–20 h at 37 °C/5% CO2. A screen of each tracer across the entire library using two different concentrations requires duplicate plates of transfected cells. Depending on the number of tracers being screened, transfections can be scaled up using the same ratios. The next day, for each tracer, four 20× screening solutions in tracer dilution buffer (Promega) were prepared: two duplicates at final concentration of 20 μM and two duplicates at a final concentration of 2 μM. […] The four resulting solutions were diluted 4-fold in Opti-MEM without serum or phenol red to generate 5× solutions (5 µM and 0.5 µM tracer +/− 100 μM competing compound). To screen the library, a BioTek MultiFlo FX liquid dispenser was used to dispense 22.5 µL of tracer solution to the top 4 rows and 22.5 µL tracer + competing compound solution to the 4 bottom rows. Plates were briefly mixed on an orbital shaker and incubated for 1.5 h at room temperature. […] Plates were briefly mixed on an orbital shaker and incubated for 15 min to allow complementation.

NPY5R = target: T2, NPY5R (Homo sapiens, UniProt Q15761); experiment: NanoBRET screen HiBiT-NPY5R in HEK293; format: binding
T2 construct: purchased Promega (in-house HiBiT-GPCR construct library, NanoBRET)
T2 sequence (Q15761 1-445): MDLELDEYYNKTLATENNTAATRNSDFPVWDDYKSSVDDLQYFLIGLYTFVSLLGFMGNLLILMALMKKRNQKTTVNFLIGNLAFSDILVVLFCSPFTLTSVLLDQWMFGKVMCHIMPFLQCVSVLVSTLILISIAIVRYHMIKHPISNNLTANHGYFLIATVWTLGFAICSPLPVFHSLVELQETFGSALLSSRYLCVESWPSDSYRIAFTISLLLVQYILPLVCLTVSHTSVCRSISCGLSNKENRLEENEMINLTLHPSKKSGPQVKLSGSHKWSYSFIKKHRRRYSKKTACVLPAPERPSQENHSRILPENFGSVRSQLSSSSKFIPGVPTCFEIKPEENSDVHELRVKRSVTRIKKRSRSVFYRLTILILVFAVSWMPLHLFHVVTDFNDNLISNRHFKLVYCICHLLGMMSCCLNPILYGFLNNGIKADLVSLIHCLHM
Experimental: as §1, §2

T1 sequence (P48039 whole entry): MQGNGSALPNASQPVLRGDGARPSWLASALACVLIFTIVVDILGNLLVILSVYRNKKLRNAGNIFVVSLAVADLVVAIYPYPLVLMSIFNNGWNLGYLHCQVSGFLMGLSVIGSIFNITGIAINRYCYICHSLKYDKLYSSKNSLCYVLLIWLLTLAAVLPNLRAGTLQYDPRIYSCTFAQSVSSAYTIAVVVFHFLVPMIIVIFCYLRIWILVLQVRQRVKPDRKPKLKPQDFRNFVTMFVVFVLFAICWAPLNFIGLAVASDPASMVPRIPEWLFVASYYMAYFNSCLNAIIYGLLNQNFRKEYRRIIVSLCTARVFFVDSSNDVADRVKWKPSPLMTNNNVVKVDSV

Row | Structure (SMILES) | NanoBRET Fold Response (MTNR1A; MTNR1A, tracer 0.1μM) | NanoBRET Fold Response (MTNR1A; MTNR1A, tracer 1μM) | NanoBRET Fold Response (NPY5R; NPY5R, tracer 0.1μM) | NanoBRET Fold Response (NPY5R; NPY5R, tracer 1μM) | other results
1 | CN1CCN(C2=Nc3cc(Cl)ccc3Nc3ccc(CNC(=O)CCOCCOCCOCCOCCNC(=O)CCc4ccc5n4[B-](F)(F)[N+]4=C(c6ccc[nH]6)C=CC4=C5)cc32)CC1 [Clozapine-b-2-NB590] |  |  |  |  | NanoBRET Fold Response (MTNR1A; MTNR1A, 1μM tracer): 1.02; NanoBRET Fold Response (NPY5R; NPY5R, 0.1μM tracer): 1.02; NanoBRET Fold Response (NPY5R; NPY5R, 1μM tracer): 1.04
2 | CN(C)CCC=C1c2ccccc2CCc2ccc(C(=O)NCCNC(=O)CCOCCOCCOCCOCCNC(=O)CCc3ccc4n3[B-](F)(F)[N+]3=C(c5ccc[nH]5)C=CC3=C4)cc21 [Amitriptyline-b-2-NB590] | 0.96 | 0.98 |  |  | NanoBRET Fold Response (NPY5R; tracer at 0.1μM, listed as amitriptyline-b-2-NB590): 0.89; NanoBRET Fold Response (NPY5R; tracer at 1μM, listed as amitriptyline-b-2-NB590): 1.02
3 | CCOC(=O)c1cc(C#N)c(N2CCC(C(=O)NS(=O)(=O)Cc3ccccc3/C=C/C(=O)NCCNC(=O)CCc3ccc4n3[B-](F)(F)[N+]3=C(c5ccc[nH]5)C=CC3=C4)CC2)nc1C [AZD1283-1-NB590] |  |  |  |  | NanoBRET Fold Response (MTNR1A; MTNR1A, 0.1μM): 1.00; NanoBRET Fold Response (MTNR1A; MTNR1A, 1μM): 1.00; NanoBRET Fold Response (NPY5R; NPY5R, 0.1μM): 1.01; NanoBRET Fold Response (NPY5R; NPY5R, 1μM): 1.03
4 | CC(C)N(CC[C@H](c1ccccc1)c1cc(CCNC(=O)CCOCCOCCOCCOCCNC(=O)CCc2ccc3n2[B-](F)(F)[N+]2=C(c4ccc[nH]4)C=CC2=C3)ccc1O)C(C)C [Tolterodine-2-NB590] | 1.07 | 0.79 | 0.95 | 0.95 | 
5 | CC(C)N(CC[C@H](c1ccccc1)c1cc(CCNC(=O)c2ccc(CNC(=O)CCc3ccc4n3[B-](F)(F)[N+]3=C(c5ccc[nH]5)C=CC3=C4)cc2)ccc1O)C(C)C [Tolterodine-BZ-NB590] | 0.97 | 1.03 | 1.05 | 0.99 | 
6 | O=C(CCOCCOCCOCCOCCNC(=O)CCc1ccc2n1[B-](F)(F)[N+]1=C(c3ccc[nH]3)C=CC1=C2)NCCCN1CCN(C2=Nc3ccccc3Oc3ccc(Cl)cc32)CC1 [Loxapine-a-2-NB590] | 0.92 | 1.12 | 0.96 | 1.09 | 
7 | CN1CCN(C2=Nc3cc(Cl)ccc3N(CC(=O)NCCOCCOCCOCCOCCNC(=O)CCc3ccc4n3[B-](F)(F)[N+]3=C(c5ccc[nH]5)C=CC3=C4)c3ccccc32)CC1 [Clozapine-c-2-NB590] |  |  |  |  | NanoBRET Fold Response (MTNR1A; MTNR1A, 0.1μM tracer): 0.97; NanoBRET Fold Response (MTNR1A; MTNR1A, 1μM tracer): 1.07; NanoBRET Fold Response (NPY5R; NPY5R, 0.1μM tracer): 0.99; NanoBRET Fold Response (NPY5R; NPY5R, 1μM tracer): 0.97
8 | CN(C)CCC=C1c2ccccc2CCc2ccc(C(=O)NCCNC(=O)CCOCCOCCOCCOCCNC(=O)CCc3ccc4n3[B-](F)(F)[N+]3=C(c5ccc[nH]5)C=CC3=C4)cc21 [Amitriptyline-a-2-NB590] |  |  |  |  | NanoBRET Fold Response (NPY5R; tracer at 0.1μM): 1.03; NanoBRET Fold Response (NPY5R; tracer at 1μM): 0.99
9 | Cc1nc2n(c(=O)c1CCN1CCC(c3noc4cc(F)ccc34)CC1)CCCC2OC(=O)NCCOCCOCCOCCOCCNC(=O)CCc1ccc2n1[B-](F)(F)[N+]1=C(c3ccc[nH]3)C=CC1=C2 (stereo not shown) [Risperidone-2-NB590] | 0.97 | 0.93 | 0.97 | 0.96 | 
10 | COc1ccc2[nH]c(-c3ccc(CNC(=O)CCOCCOCCOCCOCCNC(=O)CCc4ccc5n4[B-](F)(F)[N+]4=C(c6ccc[nH]6)C=CC4=C5)cc3)c(CCNC(C)=O)c2n1 [AzomelatoninICO9-2-NB590] |  |  |  |  | NanoBRET Fold Response (MTNR1A; 0.1μM tracer): 1.06; NanoBRET Fold Response (MTNR1A; 1μM tracer): 1.42; NanoBRET Fold Response (NPY5R; 0.1μM tracer): 0.91; NanoBRET Fold Response (NPY5R; 1μM tracer): 1.07
11 | COc1ccccc1N1CCN(CCCCN2C(=O)c3ccc(CNC(=O)CCOCCOCCOCCOCCNC(=O)CCc4ccc5n4[B-](F)(F)[N+]4=C(c6ccc[nH]6)C=CC4=C5)cc3C2=O)CC1 [NAN-190-2-NB590] | 0.99 | 0.97 |  |  | 
12 | O=C(CCc1ccc2n1[B-](F)(F)[N+]1=C(c3ccc[nH]3)C=CC1=C2)NCCOCCOCCNC(=O)OCCOCCN1CCN(C2=Nc3ccccc3Sc3ccccc32)CC1 [Quetiapine-a-2-NB590] | 1.00 | 1.05 | 0.98 | 0.87 | 
13 | O=C(CCOCCOCCOCCOCCNC(=O)CCc1ccc2n1[B-](F)(F)[N+]1=C(c3ccc[nH]3)C=CC1=C2)NCCCN1CCN(C2=Nc3cc(Cl)ccc3Nc3ccccc32)CC1 [Clozapine-a-2-NB590] |  |  |  |  | NanoBRET Fold Response (MTNR1A; MTNR1A, 0.1μM tracer): 1.03; NanoBRET Fold Response (MTNR1A; MTNR1A, 1μM tracer): 1.00; NanoBRET Fold Response (NPY5R; NPY5R, 0.1μM tracer): 1.15; NanoBRET Fold Response (NPY5R; NPY5R, 1μM tracer): 0.96
14 | N#CN=C(NCCCOc1cccc(CN2CCCCC2)c1)NCCNC(=O)CCOCCOCCOCCOCCNC(=O)CCc1ccc2n1[B-](F)(F)[N+]1=C(c3ccc[nH]3)C=CC1=C2 [Aminopotentidine-2-NB590] | 1.00 | 1.00 | 1.04 | 0.97 | 
15 | O=C(CCc1ccc2n1[B-](F)(F)[N+]1=C(c3ccc[nH]3)C=CC1=C2)NCc1ccc(C(=O)NCCOCCOCCNCC(O)COc2cccc3ccccc23)cc1 (stereo not shown) [Propranolol-3-NB590] |  |  |  |  | NanoBRET Fold Response (MTNR1A; MTNR1A, 0.1μM): 0.98; NanoBRET Fold Response (MTNR1A; MTNR1A, 1μM): 0.94; NanoBRET Fold Response (NPY5R; NPY5R, 0.1μM): 0.99; NanoBRET Fold Response (NPY5R; NPY5R, 1μM): 1.01
16 | O=C(CCc1ccc2n1[B-](F)(F)[N+]1=C(c3ccc[nH]3)C=CC1=C2)NCc1ccc(C(=O)NCCOCCC(=O)N[C@@H]2CC[C@@]3(O)[C@H]4Cc5ccc(O)c6c5[C@@]3(CCN4CC3CC3)[C@H]2O6)cc1 [Naltrexone-3-NB590] | 0.76 | 1.18 |  |  | 
17 | COc1ccccc1N1CCN(CCCCN2C(=O)c3ccc(CNC(=O)CCOCCNC(=O)c4ccc(CNC(=O)CCc5ccc6n5[B-](F)(F)[N+]5=C(c7ccc[nH]7)C=CC5=C6)cc4)cc3C2=O)CC1 [NAN-190-3-NB590] | 1.01 | 0.80 | 1.01 | 0.97 | 
18 | Cc1cc2c(s1)Nc1ccccc1N=C2N1CCN(CCCNC(=O)CCOCCOCCOCCOCCNC(=O)CCc2ccc3n2[B-](F)(F)[N+]2=C(c4ccc[nH]4)C=CC2=C3)CC1 [Olanzapine-a-2-NB590] | 1.01 | 1.07 | 1.00 | 1.01 | 
19 | CCCn1c(=O)c2[nH]c(-c3ccc(OCC(=O)NCCNC(=O)CCOCCNC(=O)c4ccc(CNC(=O)CCc5ccc6n5[B-](F)(F)[N+]5=C(c7ccc[nH]7)C=CC5=C6)cc4)cc3)nc2n(CCC)c1=O [XAC-3-NB590] | 1.02 | 1.01 | 1.02 | 1.10 | 
20 | COc1ccc2c(n1)c(CCNC(C)=O)cn2CCNC(=O)CCc1ccc2n1[B-](F)(F)[N+]1=C(c3ccc[nH]3)C=CC1=C2 [Azamelatonin-1-NB590] |  |  |  |  | NanoBRET Fold Response (MTNR1A; 0.1μM tracer): 1.12; NanoBRET Fold Response (MTNR1A; 1μM tracer): 1.55; NanoBRET Fold Response (NPY5R; 0.1μM tracer): 1.14; NanoBRET Fold Response (NPY5R; 1μM tracer): 1.09
